Test results taken from patent US20100086599A1, “ORAL MODIFIED RELEASE FORMULATIONS” (KAIROSMED GMBH, priority 2006, published 2010).
“Also recorded” adds a separate entry of the source. Read-outs that look alike come from different tables or passages of the source.

Assays:
[1] = cited from earlier work
[2] = low pH-values; cited from earlier work
SHBG = target: T1, SHBG (Homo sapiens, UniProt P04278); settings: cited from earlier work
T1 sequence (P04278 30-402): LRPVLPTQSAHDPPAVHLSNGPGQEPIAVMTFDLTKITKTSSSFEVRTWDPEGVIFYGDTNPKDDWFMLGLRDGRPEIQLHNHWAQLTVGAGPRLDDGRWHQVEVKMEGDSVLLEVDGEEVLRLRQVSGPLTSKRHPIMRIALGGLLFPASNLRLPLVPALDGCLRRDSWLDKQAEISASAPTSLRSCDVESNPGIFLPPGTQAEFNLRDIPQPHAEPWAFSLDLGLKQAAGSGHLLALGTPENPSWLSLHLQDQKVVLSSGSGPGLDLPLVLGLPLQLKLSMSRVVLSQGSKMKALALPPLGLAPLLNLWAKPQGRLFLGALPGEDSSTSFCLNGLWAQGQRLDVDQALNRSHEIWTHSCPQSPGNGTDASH

SHBG or CBG serum levels = settings: in vivo; cited from earlier work
[3] = clinical Phase Ia study: pharmacokinetics of oral 8-PN; assay type: in vivo, women
Source text: The pharmacokinetic profile of 8-PN is characterized by a complete oral absorption, a low degree of metabolization (less than 60% of dose) and a high pre-systemic elimination (first-liver-pass excretion, about 55% of dose). The high and unexpected pre-systemic elimination leads to a collection of substantial dose parts in the bile fluid from which these dose parts are secreted into the duodenum when gastric signaling occurs with a meal uptake. Respective dose parts are then absorbed again and reach systemic circulation. Data were taken from the clinical Phase la study and represent two volunteers of the lowest dose group (50 mg 8-Prenylnaringenin).
Taking the total area under the curve as a measure for 8-Prenyinaringenin systemic availability, the percentage of the area under the second peak (generated by reabsorption of the pre-systemically eliminated and then biliary secreted dose parts) can be used to estimate those dose parts which undergo pre-systemic elimination after oral dosing. On an average of six women investigated this figure is 54±20%.
Re-increases in drug serum levels show re-absorption of dose parts collected in the bile fluid and subsequently secreted triggered by lunch.

CYP isoenzymes = test: metabolism by CYP isoenzymes; assay type: in vitro ADME
[4] = pH-dependent solubility and in vitro dissolution of 8-PN; assay type: physicochemical
Source text: The solid oral modified release formulations of this invention show a pH-independent drug release in vitro. This is important as the pH varies considerably in the gastro-intestinal tract and continuous release should be achieved independent of the pH. In contrast to C21-progestins (MPA, CPA, DRSP), however, the solubility of 8-PN is pH-dependent. […] The low acid solubility property of 8-Prenylnaringenin results in vitro in slow drug dissolution at pH 1, whereas the dissolution is fast at higher pH-values such as pH 6.8. The resulting dissolution profiles are different at different pH-values. This problem is solved by the solid oral modified release formulation of this invention. […]

PR = target: T2, PR (Homo sapiens, UniProt P06401); settings: cited from earlier work
T2 sequence (P06401 1-933): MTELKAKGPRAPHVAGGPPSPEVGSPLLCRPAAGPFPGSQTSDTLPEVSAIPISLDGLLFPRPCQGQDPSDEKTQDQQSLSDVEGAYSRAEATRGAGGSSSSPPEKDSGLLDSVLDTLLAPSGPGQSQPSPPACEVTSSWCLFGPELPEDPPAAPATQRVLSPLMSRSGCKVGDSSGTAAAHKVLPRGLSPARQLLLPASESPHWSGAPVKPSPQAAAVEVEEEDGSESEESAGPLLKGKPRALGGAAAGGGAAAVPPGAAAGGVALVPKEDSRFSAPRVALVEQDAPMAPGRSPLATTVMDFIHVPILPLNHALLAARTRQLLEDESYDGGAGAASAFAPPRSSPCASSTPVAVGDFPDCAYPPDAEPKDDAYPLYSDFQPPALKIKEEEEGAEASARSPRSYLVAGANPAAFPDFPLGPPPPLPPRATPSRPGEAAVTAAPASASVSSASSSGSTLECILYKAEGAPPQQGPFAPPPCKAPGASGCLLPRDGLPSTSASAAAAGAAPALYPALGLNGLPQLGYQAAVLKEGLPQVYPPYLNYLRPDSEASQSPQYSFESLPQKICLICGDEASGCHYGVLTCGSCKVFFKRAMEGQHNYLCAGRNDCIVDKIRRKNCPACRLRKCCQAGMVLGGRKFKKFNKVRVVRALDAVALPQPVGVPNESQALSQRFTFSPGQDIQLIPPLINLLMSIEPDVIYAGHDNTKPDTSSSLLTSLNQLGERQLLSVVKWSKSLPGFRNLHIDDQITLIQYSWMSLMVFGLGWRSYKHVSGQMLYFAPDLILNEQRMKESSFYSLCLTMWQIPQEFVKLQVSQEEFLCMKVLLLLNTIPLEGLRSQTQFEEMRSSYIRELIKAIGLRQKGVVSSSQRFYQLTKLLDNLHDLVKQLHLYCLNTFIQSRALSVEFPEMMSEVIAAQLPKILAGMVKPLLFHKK

AR = target: T3, AR (Homo sapiens, UniProt P10275); settings: cited from earlier work
T3 sequence (P10275 1-920): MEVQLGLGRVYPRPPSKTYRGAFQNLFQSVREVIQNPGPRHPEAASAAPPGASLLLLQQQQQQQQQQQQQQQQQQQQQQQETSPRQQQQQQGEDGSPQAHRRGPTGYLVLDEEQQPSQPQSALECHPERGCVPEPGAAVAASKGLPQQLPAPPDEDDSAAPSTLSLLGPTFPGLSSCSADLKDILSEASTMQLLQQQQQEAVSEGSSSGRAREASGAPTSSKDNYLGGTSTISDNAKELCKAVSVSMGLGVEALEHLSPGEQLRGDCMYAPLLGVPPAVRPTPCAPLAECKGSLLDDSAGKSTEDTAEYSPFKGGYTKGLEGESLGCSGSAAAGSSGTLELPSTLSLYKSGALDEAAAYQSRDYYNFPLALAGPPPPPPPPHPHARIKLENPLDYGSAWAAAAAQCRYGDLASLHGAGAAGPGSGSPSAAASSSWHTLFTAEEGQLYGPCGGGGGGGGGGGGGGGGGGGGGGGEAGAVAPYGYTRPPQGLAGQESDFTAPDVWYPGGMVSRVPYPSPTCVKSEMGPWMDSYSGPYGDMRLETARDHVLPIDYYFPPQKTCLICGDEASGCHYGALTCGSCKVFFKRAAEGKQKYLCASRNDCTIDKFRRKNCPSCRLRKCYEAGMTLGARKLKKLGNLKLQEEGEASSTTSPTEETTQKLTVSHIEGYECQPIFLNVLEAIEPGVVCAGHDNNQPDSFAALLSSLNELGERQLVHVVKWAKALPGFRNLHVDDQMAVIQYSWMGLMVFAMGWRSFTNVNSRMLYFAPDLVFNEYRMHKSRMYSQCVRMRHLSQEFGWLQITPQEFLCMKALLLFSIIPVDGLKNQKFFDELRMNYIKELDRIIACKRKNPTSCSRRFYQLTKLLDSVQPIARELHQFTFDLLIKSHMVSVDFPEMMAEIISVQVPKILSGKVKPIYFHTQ

GR = target: T4, GR (Homo sapiens, UniProt P04150); settings: cited from earlier work
T4 sequence (P04150 1-777): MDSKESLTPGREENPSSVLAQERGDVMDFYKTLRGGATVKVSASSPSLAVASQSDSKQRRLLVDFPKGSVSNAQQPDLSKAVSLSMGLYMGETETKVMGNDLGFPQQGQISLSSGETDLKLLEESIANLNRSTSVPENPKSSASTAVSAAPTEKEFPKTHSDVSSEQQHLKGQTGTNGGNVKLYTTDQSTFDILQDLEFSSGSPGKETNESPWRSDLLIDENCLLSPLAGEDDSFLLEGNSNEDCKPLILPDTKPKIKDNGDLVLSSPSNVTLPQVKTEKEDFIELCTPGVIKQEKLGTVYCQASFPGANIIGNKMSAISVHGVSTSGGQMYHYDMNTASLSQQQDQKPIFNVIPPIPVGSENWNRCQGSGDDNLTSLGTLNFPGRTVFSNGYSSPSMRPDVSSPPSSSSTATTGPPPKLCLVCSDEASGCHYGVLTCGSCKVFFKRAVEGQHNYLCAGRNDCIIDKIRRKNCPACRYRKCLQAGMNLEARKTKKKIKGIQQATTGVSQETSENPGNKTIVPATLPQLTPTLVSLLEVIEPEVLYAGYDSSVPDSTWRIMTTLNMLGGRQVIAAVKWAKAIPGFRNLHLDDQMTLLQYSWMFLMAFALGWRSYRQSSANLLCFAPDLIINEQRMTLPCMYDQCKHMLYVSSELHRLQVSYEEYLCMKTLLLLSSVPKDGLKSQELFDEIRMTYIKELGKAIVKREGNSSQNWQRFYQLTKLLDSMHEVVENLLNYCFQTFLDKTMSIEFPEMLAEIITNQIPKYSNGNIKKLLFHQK

estrogen receptor = settings: cited from earlier work
[5] = cited from earlier work; remark: listed apart in the source
[6] = 3 mg oral, daily repeated administration
[7] = single oral intake of 3 mg DRSP

SMILES: C[C@]12CCC(=O)C=C1[C@@H]1C[C@@H]1[C@H]1[C@@H]3[C@@H]4C[C@@H]4[C@@]4(CCC(=O)O4)[C@@]3(C)CC[C@@H]12 [DRSP, Drospirenone]
- AUC [1, 6]: about 920 ng×h/ml
- maximum serum level [1, 6]: about 80 ng/ml
- apparent volume of distribution ([1]; in vivo): 4 L/kg
- disposition half-life ([1]; in vivo): 31 h
- metabolism ([1]; mainly by CYP3A4): only slightly metabolized
- oral absorption ([1]; oral): complete
- AUC0-24h [1, 7]: 288 ng·h/mL
- maximum serum levels [1, 7]: 37 ng/mL
- time at which maximum serum levels were reached [1, 7]: 1.7 h
- stability (opening of carbolactone ring to the inactive acid) [2]: sensitive to low pH-values
- binding to SHBG (SHBG): does not bind
- suppression of EE induced SHBG or CBG serum levels (SHBG or CBG serum levels): does not suppress

SMILES: CC(C)=CCc1c(O)cc(O)c2c1OC(c1ccc(O)cc1)CC2=O (stereo not shown) [Example 8-PN, 5,7-Dihydroxy-2-(4-hydroxyphenyl)-8-(3-methylbut-2-enyl)-chroman-4-on]
- degree of metabolization ([3]; oral): less than 60 % of dose
- oral absorption ([3]; oral): complete
- pre-systemic elimination (first-liver-pass excretion) ([3]; oral): about 55 % of dose
- CV of mean AUC ([3]; oral dose 250 mg): 42%
- CV of mean AUC ([3]; oral dose 750 mg): 29%
- percentage of the area under the second peak of total AUC (dose parts undergoing pre-systemic elimination) ([3]; oral, average of six women): 54±20%
- metabolism by CYP isoenzymes (CYP isoenzymes): surprisingly low extent of metabolism; also recorded: high metabolic stability
- metabolism by CYP isoenzymes (CYP isoenzymes; listed as 8-Prenylnaringenin): high metabolic stability
- solubility ([4]; higher at higher pH-values, low at lower pH-values): pH-dependent
- drug dissolution in vitro ([4]; pH 1): slow
- drug dissolution in vitro ([4]; pH 6.8): fast
- binding or activation of the PR (PR): devoid of binding or activation
- binding or activation of the AR (AR): devoid of binding or activation
- binding or activation of the GR (GR): devoid of binding or activation
- anti-estogenic activity (estrogen receptor): without any anti-estogenic activity

SMILES: C[C@]12CC[C@@H]3c4ccc(O)cc4CC[C@H]3[C@@H]1CC[C@@H]2O [Example E2, 17β-estradiol]
- coefficient of variation (CV) of the mean AUC ([5]; oral 2 mg E2, N=14): 127%
- coefficient of variation (CV) of the mean AUC ([5]; oral 4 mg E2, N=14): 91%
- coefficient of variation (CV) of the mean AUC ([5]; oral 8 mg E2, N=14): 70%
- oral bioavailability ([5]; oral): 1-3 % of dose
